ChEMBL document CHEMBL1221181, “Virtual and biomolecular screening converge on a selective agonist for GPR30” (Nat Chem Biol, 2006)
Active and inactive are the calls of the source. The calls are words filed in the database; no cut-off is given here.

Key:
[1] = target: Estrogen receptor beta (Homo sapiens) (UniProt Q92731); assay: Displacement of E2-Alexa633 from GFP-tagged ERbeta expressed in COS7 cells at 1 uM by FACS; type: cell-based; conditions: COS-7
[2] = target: Estrogen receptor beta (Homo sapiens) (UniProt Q92731); assay: Agonist activity at GFP-tagged ERbeta expressed in COS7 cells assessed as PI3K activation at 10 nM by PIP3 nuclear accumulation assay; type: functional, cell-based; conditions: COS-7

Chain of Estrogen receptor beta (Homo sapiens) (Q92731 whole entry): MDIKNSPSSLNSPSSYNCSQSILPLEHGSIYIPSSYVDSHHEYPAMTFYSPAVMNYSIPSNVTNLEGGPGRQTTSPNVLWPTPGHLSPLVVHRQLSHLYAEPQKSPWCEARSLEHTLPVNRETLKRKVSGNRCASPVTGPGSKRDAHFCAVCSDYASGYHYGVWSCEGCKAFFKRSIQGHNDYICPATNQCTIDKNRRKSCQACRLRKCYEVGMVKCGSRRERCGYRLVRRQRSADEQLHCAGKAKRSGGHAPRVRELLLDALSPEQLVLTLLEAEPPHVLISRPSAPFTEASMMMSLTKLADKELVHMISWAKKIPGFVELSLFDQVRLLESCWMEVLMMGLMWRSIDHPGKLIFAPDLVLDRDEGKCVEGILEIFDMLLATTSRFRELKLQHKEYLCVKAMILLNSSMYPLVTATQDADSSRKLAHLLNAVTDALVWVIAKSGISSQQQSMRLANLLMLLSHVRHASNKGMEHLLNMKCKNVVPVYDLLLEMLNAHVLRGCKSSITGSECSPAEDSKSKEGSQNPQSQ

Activity [1]: inactive | Activity [2]: inactive
SMILES: CC(=O)c1ccc2c(c1)[C@@H]1C=CC[C@@H]1[C@H](c1cc3c(cc1Br)OCO3)N2
